These are literature values, as cited in US20240066097A1 (priority 2022, published 2024).

Converted amounts (≈) assume the structure as drawn.

Data set [1] deals with SARS coronaviruses.
Data set [2] relates to SARS coronaviruses. This is another data set of the same source.
For data set [3] the following is noted: in vivo.

On to `Oc1cc(O)c2c(c1)O[C@@]1(c3ccc(O)c(O)c3)Oc3cc(O)c4c(c3[C@@H]2[C@H]1O)O[C@H](c1ccc(O)c(O)c1)[C@H](O)[C@H]4c1c(O)cc(O)c2c1O[C@H](c1ccc(O)c(O)c1)[C@H](O)C2` [Cinnamtannin B1], for which the “IC50” value in the data set on SARS coronaviruses [1] was 28.4 µg/mL (≈ 32.8 µM).

Consider `O=C(O[C@@H]1Cc2c(O)cc(O)cc2O[C@@H]1c1cc(O)c(O)c(O)c1)c1cc(O)c(O)c(O)c1` [EGCG, epigallocatechin gallate], for which, in the data set with SARS coronaviruses [1], the “IC50” value was 0.389 to 7.56 µg/mL.

`COc1ccc([C@@H]2CC(=O)c3c(O)cc(O)cc3O2)cc1O` [Hesperetin]: the “IC50” value in the data set on SARS coronaviruses [1] is 2.5 µg/mL (≈ 8.27 µM).

Turning to `O=c1c(O)c(-c2ccc(O)cc2)oc2cc(O)cc(O)c12` [Kaempferol], the “EC50 level of the flavonol” value in the data set on SARS coronaviruses [2] was 10 µg/mL. Moreover, in the data set on SARS coronaviruses [1], the “IC50” value was 62.50 to 125.00 µg/mL.

Consider `O=c1cc(-c2ccc(O)c(O)c2)oc2cc(O)cc(O)c12` [Luteolin], for which, in the data set on SARS coronaviruses [1], the “IC50” value was 5.72 µg/mL (≈ 20 µM).

Turning to `O=c1c(O)c(-c2cc(O)c(O)c(O)c2)oc2cc(O)cc(O)c12` [Myricetin], the “IC50” value with SARS coronaviruses [1] was 0.86 µg/mL (≈ 2.7 µM).

For `O=c1c(O)c(-c2ccc(O)c(O)c2)oc2cc(O)cc(O)c12` [Quercetin], the “EC50 level of the flavonol” value with SARS coronaviruses [2] was 60 µg/mL. Moreover, the “IC50” value with SARS coronaviruses [1] was 7.19 to 60 µg/mL.

Turning to `[Ca+2]` [calcium], the dietary calcium absorption entry is on record as “up to −50%”.

Take MBL: the half life in data set [3] was 72 to 170 h.

B1: Urtica dioica Agglutinin (UDA) (protein, UniProt P11218 24-372, looked up)
Lectin/endochitinase 1: QRCGSQGGGGTCPALWCCSIWGWCGDSEPYCGRTCENKCWSGERSDHRCGAAVGNPPCGQDRCCSVHGWCGGGNDYCSGSKCQYRCSSSVRGPRVALSGNSTANSIGNVVVTEPLFDQMFSHRKDCPSQGFYSYHSFLVAAESFPAFGTIGDVATRKREVAAFLAHISQATSGERSDVENPHAWGLCHINTTTVTENDFCTSSDWPCAAGKKYSPRGPIQLTHNFNYGLAGQAIGEDLIQNPDLVEKDPIISFKTALWFWMSQHDNKPSCHDIVLNANSAANRIPNKGVIGNIISRAFGHDDFAVRSSSIGFYKRYCDMLGVSYGHDLKYWFDNTPSSEFQRIQMRVAA
Turning to B1, the EC50 in the data set with SARS-CoV-1 was 1.3 µg/mL.
